Read-outs that look alike come from different tables or passages of the source.
Assays:
[1] = test system: IPF mice model (DTR+ mice given diphtheria toxin); assay type: in vivo
[2] = test system: WI-38 human lung fibroblasts; test: TGF-β induced mRNA expression of pro-fibrotic markers in WI-38 human lung fibroblast cell line; assay type: cell-based; conditions: WI-38 cells, various concentrations of Compound A 1 hour before TGF-β (3 ng/mL) and forskolin (1 μM), 24 hours incubation, normalized to GAPDH; FIG. 2
Method: 2) In Vitro Effects of PDE4 Inhibitor Compound A in […]
For gene expression assay, WI-38 human lung fibroblasts were suspended in Eagle's minimum essential medium (E-MEM, Invitrogen) containing 10% heat-inactivated fetal bovine serum (FBS) and seeded on 24 well plates as 0.5×10^5 cells/500 μL/well. Twenty-four hours after the seeding, medium was re-placed by E-MEM containing 0.5% FBS. Twenty-four hours after medium change, cells were treated with various concentration of Compound A. After 1 hour, cells were treated with TGF-β (3 ng/mL) and forskolin (1 μM). After the 24-hours incubation, total RNA was ex-tracted from cell lysate using RNeasy 96 Kit (QIAGEN 74182). cDNA was amplified using High-Capacity cDNA Reverse Transcription Kit (ABI 4368813), and target gene mRNA was measured using TaqMan PCR with predesigned primers for type 1 collagen alpha 1 chain (Hs00164004_m1, Applied Biosystems), fibronectin (Hs00365052_m1, Applied Biosystems), connective tissue growth factor (Hs01026927_g1, Applied Biosystems), plasminogen activator inhibitor-1 (Hs00167155_m1, Applied Biosystems) and GAPDH (Hs02758991_g1, Applied Biosystems) as the endogenous reference. The target gene expression levels were normalized by mRNA expression of GAPDH and the data represent the relative mRNA levels to TGF-β/forskolin-treated group.

## CCOc1cc2c(cc1OC)C(c1ccc(=O)n(C)c1)=N[C@@H]1CC[C@@H](O)C[C@H]21 [Compound A, 5-((2R,4aR,10bR)-9-Ethoxy-2-hydroxy-8-methoxy-1,2,3,4,4a,10b-hexahydro-phenanthridin-6-yl)-1-methyl-1H-pyridin-2-one]
[1]; DT day 1-14, Compound A 0.3 or 3.0 mg/kg oral once daily day 11-21, FIG. 1B
  body weight reduction by induction of epithelial cell injury: blunting effect was shown
[1]; DT day 1-14, Compound A oral gavage once daily day 11-21, already starting at 0.3 mg/kg (doses 0.3 and 3.0 mg/kg), assessed day 21, FIG. 1A
  suppression of lung hydroxyproline content (severity of lung fibrosis): robust and significant effect on suppression of hydroxyproline content
[2]
  mRNA expression of fibrotic marker genes (type 1 collagen alpha 1, fibronectin, connective tissue growth factor, plasminogen activator inhibitor-1) induced by TGF-β: significantly suppressed expression of fibrotic marker genes induced by TGF-β

## Cc1ccc(NC(=O)c2ccc(CN3CCN(C)CC3)cc2)cc1Nc1nccc(-c2cccnc2)n1 [Imatinib, reference compound]
[1]; DT day 1-14, imatinib 50 mg/kg intraperitoneal once daily day 11-21, FIG. 1B
  body weight reduction by induction of epithelial cell injury: not blunted
[1]; DT day 1-14, imatinib 50 mg/kg intraperitoneal once daily day 11-21, assessed day 21, FIG. 1A
  suppression of lung hydroxyproline content (severity of lung fibrosis): only a moderate efficacy

Reference: US11690839B2, “Treatment of idiopathic pulmonary fibrosis” (TAKEDA GMBH, priority 2017, dated 2023)
